From PubChem BioAssay AID330 (DTP/NCI, 2004)
Toxic doses and inconclusive results are not listed. Rule for the calls: active = survival T/C of 150% or more; inactive = T/C below 125% in these data.

Test system: P388 leukemia ip, CD2F1 mice, survival T/C
Assay: NCI In Vivo Anticancer Drug Screen. Data for tumor model P388 Leukemia (intraperitoneal) in CD2F1 (CDF1) mice
Settings: endpoint: median survival time, higher = longer survival
Method in brief: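 Mice carrying the transplanted tumor received test compound or vehicle. Survival was recorded in each group, and the value is the treated-group measurement divided by that of the vehicle-treated control group.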

[1] = dose: 25.0 mg/kg/injection, schedule: Q01DX009 (ip), vehicle: saline with Tween-80
[2] = dose: 50.0 mg/kg/injection, schedule: Q01DX009 (ip), vehicle: saline with Tween-80
[3] = dose: 100.0 mg/kg/injection, schedule: Q01DX009 (ip), vehicle: saline with Tween-80
[4] = dose: 200.0 mg/kg/injection, schedule: Q01DX009 (ip), vehicle: saline with Tween-80
[5] = dose: 50.0 mg/kg/injection, schedule: Q01DX005 (ip), vehicle: Klucel (hydroxypropylcellulose) (HPC)
[6] = dose: 100.0 mg/kg/injection, schedule: Q01DX005 (ip), vehicle: Klucel (hydroxypropylcellulose) (HPC)
[7] = dose: 200.0 mg/kg/injection, schedule: Q01DX005 (ip), vehicle: Klucel (hydroxypropylcellulose) (HPC)
[8] = dose: 100.0 mg/kg/injection, schedule: Q01DX009 (ip), vehicle: saline
[9] = dose: 200.0 mg/kg/injection, schedule: Q01DX009 (ip), vehicle: saline

Measured: T/C

COC(=O)c1ccccc1OC(C)=O
inactive: dose: 25.0 mg/kg/injection, schedule: Q01DX009 (ip), vehicle: suspension in saline 99 % of control | dose: 50.0 mg/kg/injection, schedule: Q01DX009 (ip), vehicle: suspension in saline 99 % of control | dose: 100.0 mg/kg/injection, schedule: Q01DX009 (ip), vehicle: suspension in saline 96 % of control | dose: 200.0 mg/kg/injection, schedule: Q01DX009 (ip), vehicle: suspension in saline 100 % of control

CN1NC(c2ccccc2)=NN=C1c1ccccc1
inactive: dose: 60.0 mg/kg/injection, schedule: Q01DX005 (ip), vehicle: saline with Tween-80 104 % of control | dose: 120.0 mg/kg/injection, schedule: Q01DX005 (ip), vehicle: saline with Tween-80 102 % of control | dose: 240.0 mg/kg/injection, schedule: Q01DX005 (ip), vehicle: saline with Tween-80 105 % of control

CCCCCCCCCCCCCCCCN(C)CCO
inactive: dose: 12.5 mg/kg/injection, schedule: Q01DX009 (ip), vehicle: saline with Tween-80 104 % of control | [1] 106 % of control | [2] 99 % of control

COc1c2ccncc2c(C)c2c1[nH]c1ccccc12
inactive: dose: 6.25 mg/kg/injection, schedule: Q04DX002 (ip), vehicle: distilled water + Tween-80 98 % of control | dose: 12.5 mg/kg/injection, schedule: Q04DX002 (ip), vehicle: distilled water + Tween-80 94 % of control | dose: 25.0 mg/kg/injection, schedule: Q04DX002 (ip), vehicle: distilled water + Tween-80 94 % of control | dose: 50.0 mg/kg/injection, schedule: Q04DX002 (ip), vehicle: distilled water + Tween-80 89 % of control | dose: 100.0 mg/kg/injection, schedule: Q04DX002 (ip), vehicle: distilled water + Tween-80 89 % of control | dose: 200.0 mg/kg/injection, schedule: Q04DX002 (ip), vehicle: distilled water + Tween-80 88 % of control

CCCc1c(C)nc2scc(-c3ccc(Cl)cc3)n2c1=O
inactive: [2] 96 % of control | [3] 98 % of control | [4] 96 % of control

CC1CCC(C(C)C)C(NC(=O)c2ccc[n+](C)c2)C1 (stereo unspecified)
inactive: dose: 25.0 mg/kg/injection, schedule: Q04DX002 (ip), vehicle: saline 97 % of control | dose: 50.0 mg/kg/injection, schedule: Q04DX002 (ip), vehicle: saline 97 % of control

NCC(O)COCc1ccccc1 (stereo unspecified)
inactive: dose: 50.0 mg/kg/injection, schedule: Q04DX002 (ip), vehicle: saline with Tween-80 100 % of control | dose: 100.0 mg/kg/injection, schedule: Q01DX001 (ip), vehicle: saline with Tween-80 90 % of control | dose: 100.0 mg/kg/injection, schedule: Q04DX002 (ip), vehicle: saline with Tween-80 100 % of control

C[N+]1(Cc2ccc(C(N)=O)cc2)CCC(CCC2CC[N+](C)(Cc3ccc(C(N)=O)cc3)CC2)CC1 (stereo unspecified)
inactive: dose: 0.78 mg/kg/injection, schedule: Q01DX005 (ip), vehicle: saline with Tween-80 93 % of control | dose: 1.56 mg/kg/injection, schedule: Q01DX005 (ip), vehicle: saline with Tween-80 101 % of control | dose: 3.13 mg/kg/injection, schedule: Q01DX005 (ip), vehicle: saline with Tween-80 90 % of control

CCOCCOCCOc1cccc2cccnc12
inactive: [5] 103 % of control | [6] 107 % of control | [7] 107 % of control

CSc1cccc(NC(=O)OCCOc2ccccc2Cl)c1
inactive: [2] 105 % of control | [3] 101 % of control | [4] 100 % of control

OC(c1ccccc1)C(O)C(c1ccccc1)N1CCCCC1 (stereo unspecified)
inactive: [8] 92 % of control | [9] 92 % of control

O=c1nc2oc(-c3ccccc3)cn2c(=O)n1-c1ncc(-c2ccccc2)o1
inactive: [5] 97 % of control | [6] 100 % of control | [7] 105 % of control

Cc1cc(O)c(Cl)cc1Cl
inactive: [8] 100 % of control | [9] 99 % of control | dose: 400.0 mg/kg/injection, schedule: Q01DX009 (ip), vehicle: saline 97 % of control

COc1cc2cc[n+](C)c(Cc3ccccc3)c2cc1OC
inactive: dose: 3.12 mg/kg/injection, schedule: Q01DX009 (ip), vehicle: Klucel (hydroxypropylcellulose) (HPC) 111 % of control | dose: 6.25 mg/kg/injection, schedule: Q01DX009 (ip), vehicle: Klucel (hydroxypropylcellulose) (HPC) 111 % of control | dose: 12.5 mg/kg/injection, schedule: Q01DX009 (ip), vehicle: Klucel (hydroxypropylcellulose) (HPC) 114 % of control | dose: 25.0 mg/kg/injection, schedule: Q01DX009 (ip), vehicle: Klucel (hydroxypropylcellulose) (HPC) 121 % of control
active: dose: 50.0 mg/kg/injection, schedule: Q01DX009 (ip), vehicle: Klucel (hydroxypropylcellulose) (HPC) 160 % of control

O=C(CC(=O)C(F)(F)C(F)(F)C(F)(F)F)c1csc2ccccc12
inactive: dose: 100.0 mg/kg/injection, schedule: Q04DX003 (ip), vehicle: saline with Tween-80 109 % of control

Cc1cc(C)c(S(=O)(=O)NN)c(C)c1
inactive: [1] 104 % of control | [2] 104 % of control | [3] 100 % of control | [4] 95 % of control
